Reference: patent US6737383B1, “Herbicidal oxadiazolidines” (priority 1999, dated 2004)

Experiments:
[1] = system: rape; test: Test B pre/postemergence rape; type: in vivo, Brassica napus
Procedure, shortened: (§1)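 Herbicidal effect was estimated by eye on a ten-point control scale after plants spent twelve to sixteen days in a greenhouse following soil or foliar treatment. Foliar sprays targeted plants at one to four leaves; all doses were formulated in a non-phytotoxic solvent with surfactant.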

[2] = system: velvetleaf; test: Test B pre/postemergence velvetleaf; type: in vivo, Abutilon theophrasti
Procedure, shortened: as §1

[3] = system: wheat; test: Test B pre/postemergence wheat; type: in vivo, Triticum aestivum
Procedure, shortened: as §1

[4] = system: bamyardgrass; test: Test B flood test barnyardgrass; type: in vivo, Echinochloa crus-galli
Procedure, shortened: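 Each value is a visual injury score relative to controls, with 10 meaning complete control and 0 no effect. Evaluation took place twelve to sixteen days after the 2-leaf-stage plants were treated and kept in the greenhouse.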

[5] = system: winter wheat; test: Test E winter wheat; type: in vivo, Triticum aestivum; details: Postemergence; for Wheat (winter) plant response rating: Rate 250 g/ha
Procedure, shortened: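 Postemergence: spray at 1–4 leaf stage, soil 60:40 sandy loam:potting mix; solvent + surfactant formulation; greenhouse 21–28 d; visual injury vs untreated controls.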

[6] = system: blackgrass; test: Test E blackgrass; type: in vivo, Alopecurus myosuroides; details: Preemergence; for Blackgrass plant response rating (0 to 100 scale): Rate 250 g/ha
[7] = system: green foxtail; test: Test E green foxtail; type: in vivo, Setaria viridis; details: Preemergence; for Green foxtail plant response rating (0 to 100 scale): Rate 250 g/ha
[8] = system: Italian ryegrass; test: Test E Italian ryegrass; type: in vivo, Lolium multiflorum; details: Preemergence; for I. Ryegrass plant response rating (0 to 100 scale): Rate 250 g/ha
[9] = system: winter wheat; test: Test E winter wheat; type: in vivo, Triticum aestivum; details: Preemergence; for Wheat (winter) plant response rating (0 to 100 scale): Rate 250 g/ha
[10] = system: wild oat; test: Test E wild oat; type: in vivo, Avena fatua; details: Preemergence; for Wild oat plant response rating (0 to 100 scale): Rate 250 g/ha
[11] = system: winter barley; test: Test E winter barley; type: in vivo, Hordeum vulgare; details: Preemergence; for Barley (winter) plant response rating (0 to 100 scale): Rate 250 g/ha
[12] = Preemergence, Rate 62 g/ha, scale of 0 to 10 where 0 is no effect and 10 is complete control
[13] = Preemergence, Rate 250 g/ha, scale of 0 to 10 where 0 is no effect and 10 is complete control
[14] = Preemergence, Rate 500 g/ha, scale of 0 to 10 where 0 is no effect and 10 is complete control
[15] = Rate 62 g/ha, Postemergence, scale of 0 to 10 where 0 is no effect and 10 is complete control
[16] = Rate 125 g/ha, Postemergence, scale 0 to 10
[17] = Rate 125 g/ha, Preemergence, scale of 0 to 10 where 0 is no effect and 10 is complete control
[18] = Rate 500 g/ha, Postemergence, scale 0 to 10, 0 no effect, 10 complete control
[19] = Rate 62 g/ha, headed Pre-emergence (flood test species), scale 0 to 10 (0 no effect, 10 complete control)
[20] = Rate 125 g/ha, Pre-emergence, flood test species, scale 0 to 10 where 0 is no effect and 10 is complete control
[21] = Rate 250 g/ha, Pre-emergence, flood-test species, scale 0 to 10, 0 is no effect, 10 is complete control
[22] = Rate 500 g/ha, Pre-emergence, flood test species, scale 0 to 10 (0 no effect, 10 complete control)
[23] = Rate 1000 g/ha, 0 to 100 scale where 0 is no effect and 100 is complete control
[24] = 0 to 100 scale where 0 is no effect and 100 is complete control
[25] = Rate 500 g/ha, 0 to 100 scale, 0 is no effect, 100 is complete control
[26] = Rate 500 g/ha, 0 to 100 scale where 0 is no effect and 100 is complete control
[27] = Rate 1000 g/ha, 0 to 100 scale, 0 no effect, 100 complete control
[28] = Rate 125 g/ha, Postemergence, scale of 0 to 10 where 0 is no effect and 10 is complete control
[29] = Rate 250 g/ha, Postemergence, scale of 0 to 10 where 0 is no effect and 10 is complete control

Cc1ccccc1N(C(=O)n1oc(=O)n(-c2ccccc2C)c1=O)C(C)C [Compound 236]
Rape plant response rating [1, 12]: 0
Rape plant response rating [1, 13]: 0
Plant response rating, Rape [1, 14]: 0
Rape plant response rating [1, 15]: 0
Rape plant response rating [1, 16]: 0
Rape plant response rating [1, 17]: 0
Plant response rating (0 to 10; 0 is no effect, 10 is complete control), Rape ([1]; Rate 250 g/ha, Postemergence): 0
Rape plant response rating [1, 18]: 0
Velvetleaf plant response rating [2, 12]: 0
Velvetleaf plant response rating [2, 13]: 0
Plant response rating, Velvetleaf [2, 14]: 0
Velvetleaf plant response rating [2, 15]: 0
Velvetleaf plant response rating [2, 16]: 0
Velvetleaf plant response rating [2, 17]: 0
Plant response rating (0 to 10; 0 is no effect, 10 is complete control), Velvetleaf ([2]; Rate 250 g/ha, Postemergence): 1
Velvetleaf plant response rating [2, 18]: 3
Wheat plant response rating [3, 12]: 0
Wheat plant response rating [3, 13]: 0
Plant response rating, Wheat [3, 14]: 0
Wheat plant response rating [3, 15]: 0
Wheat plant response rating [3, 16]: 0
Wheat plant response rating [3, 17]: 0
Plant response rating (0 to 10; 0 is no effect, 10 is complete control), Wheat ([3]; Rate 250 g/ha, Postemergence): 0
Wheat plant response rating [3, 18]: 0
Barnyardgrass plant response rating [4, 19]: 0
Barnyardgrass plant response rating [4, 20]: 0
Barnyardgrass plant response rating [4, 21]: 0
Barnyardgrass plant response rating [4, 22]: 0
Plant response rating, Wheat (winter) [5, 23]: 10
Wheat (winter) plant response rating [5, 24]: 0
Plant response rating, Wheat (winter) [5, 25]: 0
Blackgrass plant response rating (0 to 100 scale) [6]: 60
Plant response rating, Blackgrass [6, 26]: 60
Plant response rating, Blackgrass [6, 27]: 70
Green foxtail plant response rating (0 to 100 scale) [7]: 85
Plant response rating, Green foxtail [7, 26]: 100
Plant response rating, Green foxtail [7, 27]: 100
I. Ryegrass plant response rating (0 to 100 scale) [8]: 20
Plant response rating, I. Ryegrass [8, 26]: 40
Plant response rating, I. Ryegrass [8, 27]: 55
Wheat (winter) plant response rating (0 to 100 scale) [9]: 0
Plant response rating, Wheat (winter) [9, 26]: 10
Plant response rating, Wheat (winter) [9, 27]: 20
Wild oat plant response rating (0 to 100 scale) [10]: 20
Plant response rating, Wild oat [10, 26]: 30
Plant response rating, Wild oat [10, 27]: 50
Barley (winter) plant response rating (0 to 100 scale) [11]: 20
Plant response rating, Barley (winter) [11, 26]: 40
Plant response rating, Barley (winter) [11, 27]: 50

CC(C)N(C(=O)n1oc(=O)n([C@H](C)c2ccccc2)c1=O)c1ccc(F)cc1F [Compound 238]
Rape plant response rating [1, 12]: 0
Rape plant response rating [1, 13]: 0
Plant response rating, Rape [1, 14]: 10
Rape plant response rating [1, 15]: 0
Rape plant response rating [1, 17]: 0
Plant response rating (0 to 10; 0 is no effect, 10 is complete control), Rape ([1]; Rate 250 g/ha, Postemergence): 4
Rape plant response rating [1, 18]: 6
Velvetleaf plant response rating [2, 12]: 0
Velvetleaf plant response rating [2, 13]: 0
Plant response rating, Velvetleaf [2, 14]: 3
Velvetleaf plant response rating [2, 15]: 1
Velvetleaf plant response rating [2, 17]: 0
Velvetleaf plant response rating [2, 18]: 2
Wheat plant response rating [3, 12]: 0
Wheat plant response rating [3, 13]: 0
Plant response rating, Wheat [3, 14]: 2
Wheat plant response rating [3, 15]: 0
Wheat plant response rating [3, 17]: 0
Wheat plant response rating [3, 18]: 0
Barnyardgrass plant response rating [4, 19]: 0
Barnyardgrass plant response rating [4, 20]: 0
Barnyardgrass plant response rating [4, 21]: 0
Barnyardgrass plant response rating [4, 22]: 0
Plant response rating, Wheat (winter) [5, 23]: 40
Wheat (winter) plant response rating [5, 24]: 60
Blackgrass plant response rating (0 to 100 scale) [6]: 50
Plant response rating, Blackgrass [6, 27]: 75
Green foxtail plant response rating (0 to 100 scale) [7]: 70
Plant response rating, Green foxtail [7, 27]: 100
I. Ryegrass plant response rating (0 to 100 scale) [8]: 50
Plant response rating, I. Ryegrass [8, 27]: 85
Wheat (winter) plant response rating (0 to 100 scale) [9]: 40
Plant response rating, Wheat (winter) [9, 27]: 50
Wild oat plant response rating (0 to 100 scale) [10]: 50
Plant response rating, Wild oat [10, 27]: 50
Barley (winter) plant response rating (0 to 100 scale) [11]: 40
Plant response rating, Barley (winter) [11, 27]: 30

CC(C)N(C(=O)n1oc(=O)n(CC(C)(C)C)c1=O)c1ccc(F)cc1 [Compound 246]
Rape plant response rating [1, 12]: 0
Rape plant response rating [1, 13]: 10
Plant response rating, Rape [1, 14]: 10
Rape plant response rating [1, 17]: 2
Plant response rating (0 to 10; 0 is no effect, 10 is complete control), Rape ([1]; Rate 250 g/ha, Postemergence): 0
Rape plant response rating [1, 18]: 0
Velvetleaf plant response rating [2, 12]: 0
Velvetleaf plant response rating [2, 13]: 4
Plant response rating, Velvetleaf [2, 14]: 5
Velvetleaf plant response rating [2, 17]: 2
Velvetleaf plant response rating [2, 18]: 3
Wheat plant response rating [3, 12]: 0
Wheat plant response rating [3, 13]: 0
Plant response rating, Wheat [3, 14]: 5
Wheat plant response rating [3, 17]: 0
Wheat plant response rating [3, 18]: 4
Barnyardgrass plant response rating [4, 19]: 0
Barnyardgrass plant response rating [4, 20]: 0
Barnyardgrass plant response rating [4, 21]: 0
Barnyardgrass plant response rating [4, 22]: 8
Plant response rating, Wheat (winter) [5, 23]: 0
Wheat (winter) plant response rating [5, 24]: 0
Plant response rating, Wheat (winter) [5, 25]: 0
Blackgrass plant response rating (0 to 100 scale) [6]: 60
Plant response rating, Blackgrass [6, 26]: 100
Plant response rating, Blackgrass [6, 27]: 100
Green foxtail plant response rating (0 to 100 scale) [7]: 100
Plant response rating, Green foxtail [7, 26]: 100
Plant response rating, Green foxtail [7, 27]: 100
I. Ryegrass plant response rating (0 to 100 scale) [8]: 80
Plant response rating, I. Ryegrass [8, 26]: 90
Plant response rating, I. Ryegrass [8, 27]: 100
Wheat (winter) plant response rating (0 to 100 scale) [9]: 50
Plant response rating, Wheat (winter) [9, 27]: 50
Wild oat plant response rating (0 to 100 scale) [10]: 50
Plant response rating, Wild oat [10, 26]: 65
Plant response rating, Wild oat [10, 27]: 85
Barley (winter) plant response rating (0 to 100 scale) [11]: 40
Plant response rating, Barley (winter) [11, 26]: 50
Plant response rating, Barley (winter) [11, 27]: 60

Cc1cccc(C)c1-n1c(=O)on(C(=O)N(C(C)C)C2C=CCCC2)c1=O (stereo not shown) [Compound 273]
Rape plant response rating [1, 12]: 0
Rape plant response rating [1, 13]: 0
Plant response rating, Rape [1, 14]: 0
Rape plant response rating [1, 28]: 0
Rape plant response rating [1, 17]: 0
Plant response rating, Rape [1, 29]: 0
Rape plant response rating [1, 18]: 0
Velvetleaf plant response rating [2, 12]: 0
Velvetleaf plant response rating [2, 13]: 0
Plant response rating, Velvetleaf [2, 14]: 1
Velvetleaf plant response rating [2, 28]: 0
Velvetleaf plant response rating [2, 17]: 0
Plant response rating, Velvetleaf [2, 29]: 0
Velvetleaf plant response rating [2, 18]: 2
Wheat plant response rating [3, 12]: 0
Wheat plant response rating [3, 13]: 0
Plant response rating, Wheat [3, 14]: 0
Wheat plant response rating [3, 28]: 0
Wheat plant response rating [3, 17]: 0
Plant response rating, Wheat [3, 29]: 0
Wheat plant response rating [3, 18]: 0
Barnyardgrass plant response rating [4, 19]: 0
Barnyardgrass plant response rating [4, 20]: 4
Barnyardgrass plant response rating [4, 21]: 4
Barnyardgrass plant response rating [4, 22]: 3
Plant response rating, Wheat (winter) [5, 23]: 60
Wheat (winter) plant response rating [5, 24]: 30
Plant response rating, Wheat (winter) [5, 25]: 50
Blackgrass plant response rating (0 to 100 scale) [6]: 55
Plant response rating, Blackgrass [6, 26]: 80
Plant response rating, Blackgrass [6, 27]: 100
Green foxtail plant response rating (0 to 100 scale) [7]: 20
Plant response rating, Green foxtail [7, 26]: 30
Plant response rating, Green foxtail [7, 27]: 60
I. Ryegrass plant response rating (0 to 100 scale) [8]: 30
Plant response rating, I. Ryegrass [8, 26]: 55
Plant response rating, I. Ryegrass [8, 27]: 60
Wheat (winter) plant response rating (0 to 100 scale) [9]: 50
Plant response rating, Wheat (winter) [9, 26]: 60
Plant response rating, Wheat (winter) [9, 27]: 60
Wild oat plant response rating (0 to 100 scale) [10]: 80
Plant response rating, Wild oat [10, 26]: 70
Plant response rating, Wild oat [10, 27]: 80
Barley (winter) plant response rating (0 to 100 scale) [11]: 70
Plant response rating, Barley (winter) [11, 26]: 65
Plant response rating, Barley (winter) [11, 27]: 80
